Experimental data: patent US20190064129A1, “Systems And Methods To Determine Body Drug Concentration From An Oral Fluid” (Sterling Healthcare Opco, LLC, priority 2013, published 2019)

Experiments:
[1] = LC-MS/MS quantitation of drug in donor serum/plasma; assay type: in vivo, human
Description: (§1) Specimens may undergo a sample preparation step in advance of providing the sample to the drug concentration analysis engine, which involves extracting the analyte(s) of interest from biological matrices. This process serves to eliminate any biological material that could potentially affect analytical results. Samples are first treated to disrupt any drug matrix interactions (protein binding, conjugation) and then adjusted to a specific pH with a buffer. Analytes are then extracted from the remaining matrix using solid phase extraction module 206, which may be comprised of cartridges that are mixed-mode cationic exchange columns. This technique uses the specific binding of ionized drug molecules to the extraction cartridge packing material resulting in strong analyte retention within the column. A series of aqueous and organic wash steps may be used to assist in removing unwanted compounds and matrix components from the sample. Target analytes are then eluted from the solid phase extraction module 206, collected, and analyzed by identification module 208 that may be, for example, a liquid chromatography tandem mass spectrometry (LC/MS-MS) device, although other analysis devices are possible.
In this exemplary embodiment, the specimens are analyzed by the identification module 208 that is a LC/MS-MS device, which allows for accurate and precise analyte identification and quantitation. This analytical technique uses a chromatographic system to separate all of the sample components into discrete peaks and sequentially identifies each compound through mass spectral identification. The chromatographic system is composed of a stationary phase of hydrophobic character (for example, octadecylsilane) and a mobile phase of varying polarity (for example, methanol, water). Specimens are injected into the chromatograph and pumped through the system by flow of the mobile phase. Separation is brought about by differential interactions with the stationary phase based on physical and chemical properties of the individual analytes. The end result is a separation of all of the sample components into discrete bands. As each component elutes from the liquid chromatograph it enters the mass spectrometer. The mass spectrometer is able to first determine an analytes specific molecular weight, called a precursor ion, and subsequently fragment the precursor ion into smaller fragments called product ions. The precursor ion and generated product ions are a specific marker of every analyte of interest. No two compounds will generate completely identical mass spectra. This allows for the identification module 208 to conclusively identify specimen components. Additionally, when specimens are analyzed alongside a series of standards of known concentration, a calibration curve can be generated and quantitative values of identified drugs can be determined.
(§2) Each donor provides simultaneous serum and oral fluid samples. The measured serum drug concentration is the LC-MS/MS response ratio of drug to internal standard determined from the individual's provided serum sample. The measured oral fluid drug concentration ratio is the LC-MS/MS response ratio of drug to internal standard determined from the individual's provided oral fluid sample. The oral fluid plasma equivalent is derived from the individual's measured oral fluid drug concentration, salivary pH, as well as various drug parameters referenced in literature.

[2] = Drug pharmacokinetic parameters referenced in literature; assay type: in vivo; details: drug clearance/Vd
Experimental: Do=Original dosage taken Vd=Volume of distribution of drug (referenced in literature) times the kg body weight of donor C=Plasma drug concentration Ka=Absorption constant of drug (referenced in literature) Kel=Elimination constant of drug (referenced in literature) F=Bioavailability of drug (referenced in literature) t=Elapsed time between dosage and specimen collection
Each donor's drug clearance rate is determined by multiplying the drugs clearance rate (referenced in literature) by the donor's weight (provided).
Likewise, each donor's volume of distribution (DVd) is calculated by multiplying the drug volume of distribution (Vd) (referenced in literature) by the donor's weight (provided).
[formula] • Css max=Steady state maximum concentration (ng/mL) • F=Fractional bioavailability • k=Fractional rate constant (drug clearance/Vd) • t=Dose frequency (hr) • DVd=Donor volume of distribution (reference Eq. 2)
[formula] • Do=Original dose taken (mg) • DVd=Volume of distribution of donor (mL) (reference Eq. 2) • C=Plasma drug concentration (mg/mL) • Ka=Absorption constant of drug (referenced in literature) • Kel=Elimination constant of drug (referenced in literature) • F=Fractional bioavailability of drug (referenced in literature) • t=Elapsed time between dosage and specimen collection (fir)

[3] = Oral fluid plasma equivalent calculation; assay type: in vivo, human
Description: as §2
[formula] • S=Saliva drug concentration (ng/mL) • P=Plasma drug concentration (ng/mL) • pHs=pH of saliva (to be determined at the time of collection) • pHp=pH of plasma (assumed to be 7.4) • pKa=Dissociation constant of a drug (referenced in literature) • fp=Free fraction of drug in plasma (referenced in literature) • fs=Free fraction of drug in saliva (negligible; assumed to be 1)
Once the S/P ratio for a drug is calculated using Eq. 5 or Eq. 6, oral fluid plasma equivalent is determined by […] the calculated S/P by the measured oral fluid drug concentration determined by LC/MS-MS quantitation, ultimately eliminating the necessity of directly analyzing blood samples to determine donor compliance.

plasma proteins = details: free fraction in plasma, referenced in literature; cited from earlier work
[4] = referenced in literature, cited from earlier work; for Kel: elimination constant
[5] = LC-MS/MS quantitation of drug in donor oral fluid (saliva); assay type: in vivo, human
Description: With reference now to FIG. 1, an exemplary methodology 100 for collecting oral fluid will be described. First, the donor (sometimes referred to as subject, patient, person, or the like) is positioned to allow retrieval of the oral fluid sample, step 102. Next, an oral fluid collection device is placed in the donor's mouth, step 104. The collection device in one exemplary embodiment may be an absorbent swab placed under the tongue. One particularly useful collection device that has been developed is shown and described in FIG. 6. In this exemplary embodiment, the oral fluid collection device collects about 1 mL of neat oral fluid from the donor. Generally, the term about or approximately in the present application means within an acceptable tolerance, such as, for example, ±10% or the like. Volumetric collection is required for quantitative analysis when analyzed from a buffer solution. Oral fluid may be absorbed by the collection device by allowing saliva to move up the stem of a collection device via capillary action, step 106. When a sufficient amount of oral fluid is collected, the collection device provides indicia that the required collection amount has been collected, step 108. The indicia indicating the required volume is collected may be by a color change on a collection adequacy indicator or the like. Alternatively, an alpha/numeric display may be provided or an audio alert, such as a beep. Determining salivary pH is completed next or substantially at the same time as the required volume is collected, step 110. The pH of the oral fluid may be determined by a pH sensitive pigment or by other means including, for example, a sensor or the like. The pH indicia may be combined or separate from the indicia for volume and may include the same or different indicators. For example, the volume of the sample may be provided by a color strip whereas the pH may be provided by an audio. […] The pH will then be recorded or otherwise maintained for later use, step 112. In this exemplary embodiment, the donor will provide a sample by placing the collector swab under his or her tongue until the indicator changes color. The swab is then placed in 3 mL of oral fluid extraction buffer that promotes stabilization of the drug, preventing bacterial growth, and facilitates efficient extraction of the drugs and/or metabolites from the adsorbent swab, as is further explained below, step 114. Specimens may be aliquoted for analysis, and any remaining sample may be transferred to long-term storage at, for example, a storage temperature of between about −20 to about 0° C. The collected oral fluid may be referred to as a sample or a specimen interchangeably herein.
as §1, with “possible. […]” for “possible.”

[6] = Donor 0442, salivary pH 5.8, dose 100 mg every 8 hr, weight 89.890 kg
[7] = Donor 0604, salivary pH 5.5, dose 50 mg every 8 hr, weight 81.720 kg
[8] = Donor 0673, salivary pH 6.8, dose 50 mg every 6 hr, weight 105.782 kg
[9] = Donor 0182, salivary pH 5.5, dose 5 mg every 6 hr, weight 68.554 kg
[10] = Donor 0383, salivary pH 5.8, dose 10 mg every 4 hr, weight 68.10 kg
[11] = Donor 0602, salivary pH 5.5, dose 5 mg every 12 hr, weight 163.44 kg

## COc1cccc(C2(O)CCCCC2CN(C)C)c1 (stereo not drawn) [Tramadol]
[1]; [6]
  Measured Plasma Tramadol Concentration: 70.4 ng/mL
[1]; [7]
  Measured Plasma Tramadol Concentration: 376.6 ng/mL
[1]; [8]
  Measured Plasma Tramadol Concentration: 104.1 ng/mL
[2]
  Fractional Rate Constant; “k”: 0.178 h⁻¹
[3]; [6]
  Tramadol Oral Fluid Plasma Equivalent: 41.2 ng/mL
[3]; [7]
  Tramadol Oral Fluid Plasma Equivalent: 475.5 ng/mL
[3]; [8]
  Tramadol Oral Fluid Plasma Equivalent: 118.7 ng/mL
Plasma proteins
  Unbound Fraction (fp): 0.80
[4]
  Clearance: 8 mL/min/kg
  Fractional Bioavailability: 0.725
  Volume of Distribution: 2.7 L/kg
[5]; [6]
  Measured Saliva Tramadol Concentration: 1302.5 ng/mL
[5]; [7]
  Measured Saliva Tramadol Concentration: 29926.5 ng/mL
[5]; [8]
  Measured Saliva Tramadol Concentration: 375.6 ng/mL

## COc1ccc2c3c1O[C@H]1C(=O)CC[C@H]4[C@@H](C2)N(C)CC[C@]314 [Hydrocodone]
[2]
  Fractional Rate Constant; “k”: 0.132 h⁻¹
[3]; Donor 0409, salivary pH 6, dose 5 mg every 6 hr, weight 67.646 kg
  Hydrocodone Oral Fluid Plasma Equivalent: 20.5 ng/mL
[3]; Donor 0476, salivary pH 7.2, 5.833 hr after last dose
  Oral Fluid Plasma Equivalent: 4.5 ng/mL (reference Eq. 8)
[3]; Donor 0704, salivary pH 6.6, dose 10 mg every 12 hr, weight 147.55 kg
  Hydrocodone Oral Fluid Plasma Equivalent: 60.5 ng/mL
[3]; Donor 0897, salivary pH 7, dose 10 mg every 4 hr, weight 83.99 kg
  Hydrocodone Oral Fluid Plasma Equivalent: 10.1 ng/mL
[4]; absorption constant
  Ka: 2.8 h⁻¹
[4]
  Kel: 0.141 h⁻¹
  Clearance: 8.82 mL/min/kg
  Fractional Bioavailability: 0.7

## COc1ccc2c3c1O[C@H]1C(=O)CC[C@@]4(O)[C@@H](C2)N(C)CC[C@]314 [Oxycodone]
[1]; [9]
  Measured Plasma Oxycodone Concentration: 7.9 ng/mL
[1]; [10]
  Measured Plasma Oxycodone Concentration: 8.4 ng/mL
[1]; [11]
  Measured Plasma Oxycodone Concentration: 16.7 ng/mL
[1]; human, plasma, 1 mg, Donor 0565, weight 118.040 kg, 1.383 hr after last dose
  concentration at 1.383 hr: 33.7 ng/mL
[1]; human, plasma, 7.5 mg, Donor 0476, weight 84.898 kg, 6.050 hr after last dose, read-out: Measured Plasma Concentration
  concentration at 6.05 hr: 3.2 ng/mL
[2]
  Fractional Rate Constant; “k”: 0.372 h⁻¹
[3]; [9]
  Oxycodone Oral Fluid Plasma Equivalent: 7.5 ng/mL
[3]; [10]
  Oxycodone Oral Fluid Plasma Equivalent: 11.3 ng/mL
[3]; Donor 0565, salivary pH 6.4, 1.333 hr after last dose
  Oral Fluid Plasma Equivalent (Calculated Plasma Concentration): 42.0 ng/mL (reference Eq. 8)
[3]; [11]
  Oxycodone Oral Fluid Plasma Equivalent: 24.1 ng/mL
[3]; human, plasma (equivalent calculated from oral fluid), po, 1 mg, Donor 0565, salivary pH 6.4, 1.333 hr after last dose
  concentration at 1.333 hr: 42 ng/mL
Plasma proteins
  Unbound Fraction (fp): 0.55
[4]
  Kel: 0.174 h⁻¹
  Clearance: 12.4 mL/min/kg
  Fractional Bioavailability: 0.735
[5]; [9]
  Measured Saliva Oxycodone Concentration: 306.4 ng/mL
[5]; [10]
  Measured Saliva Oxycodone Concentration: 230.2 ng/mL
[5]; [11]
  Measured Saliva Oxycodone Concentration: 978.2 ng/mL
[5]; human, oral fluid (saliva), po, 1 mg, Donor 0565, salivary pH 6.4, weight 118.040 kg, 1.333 hr after last dose, read-out: Measured Oral Fluid Concentration
  concentration at 1.333 hr: 217 ng/mL
